In US20220214363A1, “NOVEL LIGAND ASSAYS” (InsituGen Limited, priority 2019, published 2022):

Target: T1, AR (Homo sapiens, UniProt P10275)
T1 sequence (P10275 1-920): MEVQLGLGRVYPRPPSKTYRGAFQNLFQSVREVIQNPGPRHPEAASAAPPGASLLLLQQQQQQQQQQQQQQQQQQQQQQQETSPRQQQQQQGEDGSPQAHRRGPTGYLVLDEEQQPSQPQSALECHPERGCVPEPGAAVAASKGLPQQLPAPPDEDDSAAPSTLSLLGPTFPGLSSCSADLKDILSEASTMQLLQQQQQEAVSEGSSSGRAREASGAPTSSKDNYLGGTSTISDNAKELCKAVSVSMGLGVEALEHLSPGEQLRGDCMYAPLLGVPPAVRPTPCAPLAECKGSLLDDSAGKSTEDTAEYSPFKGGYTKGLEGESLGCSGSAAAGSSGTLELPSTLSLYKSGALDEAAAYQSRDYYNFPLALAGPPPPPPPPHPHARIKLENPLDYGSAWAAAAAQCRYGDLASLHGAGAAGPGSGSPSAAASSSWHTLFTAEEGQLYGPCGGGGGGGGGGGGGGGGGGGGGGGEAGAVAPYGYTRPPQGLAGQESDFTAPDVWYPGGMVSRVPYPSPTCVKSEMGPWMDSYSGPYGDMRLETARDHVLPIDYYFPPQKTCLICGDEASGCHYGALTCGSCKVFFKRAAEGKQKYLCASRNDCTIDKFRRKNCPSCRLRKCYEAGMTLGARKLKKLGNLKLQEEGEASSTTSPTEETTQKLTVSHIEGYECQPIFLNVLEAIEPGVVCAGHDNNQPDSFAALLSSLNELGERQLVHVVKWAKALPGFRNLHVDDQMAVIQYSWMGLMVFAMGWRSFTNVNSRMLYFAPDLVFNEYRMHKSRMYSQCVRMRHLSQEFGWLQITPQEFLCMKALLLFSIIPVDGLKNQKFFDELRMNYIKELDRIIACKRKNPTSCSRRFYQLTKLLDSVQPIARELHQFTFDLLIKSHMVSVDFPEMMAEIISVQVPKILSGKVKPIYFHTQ
Settings: gelding urine sample spiked with trenbolone before deconjugation and extraction; vs ethanol control set at 100%
From the text: Spiked trenbolone represents a gelding urine sample that had been spiked with trenbolone before the deconjugation and extraction steps. T7 activity measured for the ethanol control was arbitrarily set at 100%.
Racehorse urine samples were collected on race day and steroids deconjugated and extracted using routine processes. The extracted steroids were resuspended in ethanol and subjected to the assay.

SMILES: C[C@]12C=CC3=C4CCC(=O)C=C4CCC3C1CC[C@@H]2O (stereo partly shown) [trenbolone]
- suppression of T7-generated Mango II: suppression of T7-generated Mango II
